Data: patent publication US9199200B2, “Submerged membrane bioreactor system and biological methods for removing bisphenol compounds from municipal wastewater” (Centre de Recherche Industrielle de Québec (CRIQ), priority 2010, dated 2015)

What was measured:
[1] = Thermodynamic parameters of BPA adsorption on inactivated sludge; assay type: physicochemical
Procedure: The third set of assays consisted of evaluating the thermodynamic parameters such as Gibbs free energy)(ΔG^0), enthalpy)(ΔH^0 and entropy)(ΔS^0 changes, which parameters allowed to determine whether BPA sorption on sludge was due to physisorption or chemisorption phenomenon or the combination of both phenomena. For that, Erlenmeyer flasks containing 200 mL of inactivated sludge at 15 g TSS L^−1 and 5 mgL^−1 of BPA are used. Mixing is achieved at 150 rpm and different temperatures (22±2, 30±2 and 40±2° C.) are respectively imposed for 2 h of experiment time.
In order to calculate whether the adsorption process is spontaneous or not, thermodynamics parameters including standard Gibbs free energy of adsorption (ΔadG^0), standard enthalpy of adsorption (ΔadH^0) and standard entropy change of) adsorption (ΔadS^0) have been considered. ΔadG^0 is calculated using the following equation (Eq. (22)): ΔadG^0=−RT ln Kd (22)
T is the temperature (K), and KD is the specific adsorption coefficient (equilibrium distribution coefficient). Relation between ΔadG^0, ΔH^0 and ΔadS^0 is expressed by the following equation (Eq. (23)): ΔadG^0=ΔadH^0−TΔadS^0 (23)
wherein ΔadH^0, ΔadS^0 are calculated from the slope and intercept of the plot of ln KD versus 1/T, respectively.
The adsorption tests are conducted at different temperatures ranging from 293 K to 313 K. At each temperature, the corresponding KD at fixed initial concentration of BPA is calculated and the corresponding Gibbs free energy change is deducted according to Eq. (22).

[2] = Sorption time course of BPA on activated and inactivated sludge in shake flasks; assay type: physicochemical; details: average over the first 30 min; initial 5.0 or 10 mg/L; 15 g TSS/L
Procedure: To elucidate the plausible mechanisms of the biological removal of the bisphenol compounds, the removal of BPA was tested (adsorption on the biomass versus biological oxidation), and additional experiments are carried out in Erlenmeyer shake flasks containing either activated sludge or inactivated sludge in the presence of BPA. The sludge used for the tests is withdrawn from the SMBR unit. Prior to BPA addition in activated sludge sample, sludge is initially centrifuged at 8000 rpm at 4° C. for 10 min and softly washed. The inactivated sludge is prepared by subjecting sludge samples to a sterilization by adding 1.0 mL HgSO4 (20 g/L) to 200 mL of sludge. Then, the sterilized and centrifuged sample sludge is placed in conical flasks and shaken at 150 rpm at 22±2° C. for 2 h, and then centrifuged at 8000 rpm at 4° C. for 10 min. Different concentrations of BPA (0.45 to 18.2 mg/L) are added in the same mass of sludge (3.0 g of sludge diluted to 200 mL with milli-Q water). […] The flasks are shaken at 150 rpm at 22±2° C., pH=7±0.5 for 24 h and samples are taken in regular time intervals, and the amount of BPA adsorbed is determined by measuring the residual BPA concentrations in solution The same assay is carried out using inactivated sludge. […]

[3] = cited from earlier work

## CC(C)(c1ccc(O)cc1)c1ccc(O)cc1 [BPA, 2,2-Bis(4-hydroxyphenyl)propane]
[1]; 293-313 K
  ΔadH^0: −82.121 KJmol^−1
  ΔadS^0: −0.257 KJmol^−1K^−1
[1]; 293 K
  ΔadG^0: -1.72 kcal/mol
[1]; 303 K
  ΔadG^0: -0.7216 kcal/mol
[1]; 313 K
  ΔadG^0: -0.5067 kcal/mol
[2]
  BPA removed by physical sorption: 69%
[3]; Chen et al., submerged membrane bioreactor process
  Equilibrium adsorption time: 30 min
[3]; Clara et al.
  Freundlich coefficient log Kf: −0.614
[3]; Clara et al., conventional activated sludge reactor
  BPA adsorption equilibrium time: 2 h
